Each structure is given as a SMILES string. Where two headings read alike, the source gives them in different places.

Data set [1] deals with Smo. The note with it: preclinical pancreatic cancer models; cited from earlier work.
The subject of data set [2] is castration-resistant prostate cancer. The following applies: murine castration-resistant prostate cancer models; cited from earlier work.
The conditions of data set [3]: rats, cited from earlier work.
For data set [4] the following is noted: dogs, cited from earlier work.
For data set [5], the target named is human neurotransmitter dopamine transporter (Homo sapiens, UniProt Q01959). Also on record: dose or concentration left out as unconfirmed. The following applies: cited from earlier work.
human neurotransmitter dopamine transporter, sequence (Q01959 whole entry): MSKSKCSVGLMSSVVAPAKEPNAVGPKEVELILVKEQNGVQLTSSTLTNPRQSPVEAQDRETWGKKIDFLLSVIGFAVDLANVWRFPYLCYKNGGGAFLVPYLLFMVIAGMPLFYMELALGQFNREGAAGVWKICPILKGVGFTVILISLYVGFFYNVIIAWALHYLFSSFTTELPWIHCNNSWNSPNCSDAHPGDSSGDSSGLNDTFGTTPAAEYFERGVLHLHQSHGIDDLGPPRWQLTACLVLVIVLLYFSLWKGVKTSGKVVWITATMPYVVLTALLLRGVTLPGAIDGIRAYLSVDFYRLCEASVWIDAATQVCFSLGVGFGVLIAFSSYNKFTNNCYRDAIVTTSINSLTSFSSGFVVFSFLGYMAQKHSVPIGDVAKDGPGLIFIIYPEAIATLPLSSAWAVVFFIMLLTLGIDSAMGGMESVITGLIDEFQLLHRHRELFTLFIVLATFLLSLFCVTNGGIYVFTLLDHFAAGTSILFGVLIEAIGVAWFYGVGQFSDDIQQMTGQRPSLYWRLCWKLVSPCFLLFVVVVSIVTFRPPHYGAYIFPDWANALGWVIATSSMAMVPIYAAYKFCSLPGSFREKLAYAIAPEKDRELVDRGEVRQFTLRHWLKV
Data set [6] has as its target T1, P-glycoprotein (P-gp) (Homo sapiens, UniProt P08183).
T1 construct: endogenous in cells; host or cells: Caco-2 cells
The note with it: cited from earlier work.

Data set [7] has as its target T2, human Smo (hSmo) (Homo sapiens, UniProt Q99835).
T2 construct: expressed in transfected cells; host or cells: 293T cells
The note with it: 293T cells overexpressing hSmo; read-out: IC50, inhibition of cyclopamine binding to human Smo; cited from earlier work.

Data set [8] relates to medulloblastoma allograft. The note with it: cited from earlier work.
The conditions of data set [9]: rats; cited from earlier work.
For data set [10] the following is noted: cited from earlier work.
Details of data set [11]: dose or concentration left out as unconfirmed. The note with it: rats; cited from earlier work.
The conditions of data set [12]: cited from earlier work. This is another data set of the same source.
The subject of data set [13] is Panc025. In words: Panc025 PDAC subcutaneous xenograft model. The class given is in vivo, mice. The note with it: Panc 025, nab-paclitaxel 50 mg/kg 1dq4×3, TAK-441 25 mg/kg daily p.o. On the procedure:
(§1) After several dose-finding studies to define the most feasible dose of nab-paclitaxel, a dose of 50 mg/kg 1dq4×3 was used. TAK-441 was selected and administered daily at the recommended dose (25 mg/kg daily p.o.). The study was conducted for 21 days. Based on the tumor volume values on experimental day 21, it was estimated the Tumor Growth Inhibition (TGI) factor as indicated in the Table 1. […] In order to evaluate the histological status of the stroma after treatment, Masson's Trichrome stained slides from Panc 163 and Panc 025 models were analyzed.

Data set [14] has as its system Gli transcriptional activity. The note with it: Gli-luc NIH3T3 cells; cited from earlier work.
Data set [15] has as its system human PDE4 phosphodiesterase. More on the design: dose or concentration left out as unconfirmed. The following applies: cited from earlier work.
On the set-up of data set [16]: dose or concentration left out as unconfirmed. The note with it: dogs; cited from earlier work.
Details of data set [17]: dose or concentration left out as unconfirmed. The note with it: mice; cited from earlier work.
Data set [18] has as its system Gli1 mRNA. The following applies: MRC5 human embryonic fibroblasts; read-out: IC50, expression of Gli1 mRNA; cited from earlier work.
Data set [19] relates to Panc163. In words: Panc163 PDAC subcutaneous xenograft model. The class given is in vivo, mice. The note with it: Panc 163, nab-paclitaxel 50 mg/kg 1dq4×3, TAK-441 25 mg/kg daily p.o. On the procedure: as §1
Data set [20] deals with CYP isozymes. The note with it: cited from earlier work.
The target of data set [21] is T3, CYP2C8 (Homo sapiens, UniProt P10632).
T3 sequence (P10632 1-490): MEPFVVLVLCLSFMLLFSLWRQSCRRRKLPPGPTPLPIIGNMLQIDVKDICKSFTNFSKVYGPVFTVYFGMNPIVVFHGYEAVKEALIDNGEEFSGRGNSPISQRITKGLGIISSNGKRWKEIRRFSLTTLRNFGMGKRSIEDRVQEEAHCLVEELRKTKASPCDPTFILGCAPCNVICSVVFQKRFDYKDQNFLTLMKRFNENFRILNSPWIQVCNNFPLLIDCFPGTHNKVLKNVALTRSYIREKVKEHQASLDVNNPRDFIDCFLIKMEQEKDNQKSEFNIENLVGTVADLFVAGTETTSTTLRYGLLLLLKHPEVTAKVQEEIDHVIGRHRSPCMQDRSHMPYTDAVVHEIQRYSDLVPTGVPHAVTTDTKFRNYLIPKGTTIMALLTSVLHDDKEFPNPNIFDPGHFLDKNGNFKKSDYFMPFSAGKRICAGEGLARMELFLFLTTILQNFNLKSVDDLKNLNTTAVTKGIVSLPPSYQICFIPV
The following applies: cited from earlier work.

Data set [22] has as its system JH051. In words: JH051 PDAC subcutaneous xenograft model. The class given is in vivo, mice. The note with it: JH 051, nab-paclitaxel 50 mg/kg 1dq4×3, TAK-441 25 mg/kg daily p.o. On the procedure:
After several dose-finding studies to define the most feasible dose of nab-paclitaxel, a dose of 50 mg/kg 1dq4×3 was used. TAK-441 was selected and administered daily at the recommended dose (25 mg/kg daily p.o.). The study was conducted for 21 days. Based on the tumor volume values on experimental day 21, it was estimated the Tumor Growth Inhibition (TGI) factor as indicated in the Table 1.

Data set [23] deals with PAN-04 primary human pancreas xenograft. The note with it: PAN-04 xenograft, cited from earlier work.
Data set [24] relates to Caco-2 cells. The following applies: cited from earlier work.
On the set-up of data set [25]: dose or concentration left out as unconfirmed. The following applies: human beings; cited from earlier work.
Setting [26] is: exposures exceeding the predicted efficacious concentration.

T1 sequence (P08183 whole entry): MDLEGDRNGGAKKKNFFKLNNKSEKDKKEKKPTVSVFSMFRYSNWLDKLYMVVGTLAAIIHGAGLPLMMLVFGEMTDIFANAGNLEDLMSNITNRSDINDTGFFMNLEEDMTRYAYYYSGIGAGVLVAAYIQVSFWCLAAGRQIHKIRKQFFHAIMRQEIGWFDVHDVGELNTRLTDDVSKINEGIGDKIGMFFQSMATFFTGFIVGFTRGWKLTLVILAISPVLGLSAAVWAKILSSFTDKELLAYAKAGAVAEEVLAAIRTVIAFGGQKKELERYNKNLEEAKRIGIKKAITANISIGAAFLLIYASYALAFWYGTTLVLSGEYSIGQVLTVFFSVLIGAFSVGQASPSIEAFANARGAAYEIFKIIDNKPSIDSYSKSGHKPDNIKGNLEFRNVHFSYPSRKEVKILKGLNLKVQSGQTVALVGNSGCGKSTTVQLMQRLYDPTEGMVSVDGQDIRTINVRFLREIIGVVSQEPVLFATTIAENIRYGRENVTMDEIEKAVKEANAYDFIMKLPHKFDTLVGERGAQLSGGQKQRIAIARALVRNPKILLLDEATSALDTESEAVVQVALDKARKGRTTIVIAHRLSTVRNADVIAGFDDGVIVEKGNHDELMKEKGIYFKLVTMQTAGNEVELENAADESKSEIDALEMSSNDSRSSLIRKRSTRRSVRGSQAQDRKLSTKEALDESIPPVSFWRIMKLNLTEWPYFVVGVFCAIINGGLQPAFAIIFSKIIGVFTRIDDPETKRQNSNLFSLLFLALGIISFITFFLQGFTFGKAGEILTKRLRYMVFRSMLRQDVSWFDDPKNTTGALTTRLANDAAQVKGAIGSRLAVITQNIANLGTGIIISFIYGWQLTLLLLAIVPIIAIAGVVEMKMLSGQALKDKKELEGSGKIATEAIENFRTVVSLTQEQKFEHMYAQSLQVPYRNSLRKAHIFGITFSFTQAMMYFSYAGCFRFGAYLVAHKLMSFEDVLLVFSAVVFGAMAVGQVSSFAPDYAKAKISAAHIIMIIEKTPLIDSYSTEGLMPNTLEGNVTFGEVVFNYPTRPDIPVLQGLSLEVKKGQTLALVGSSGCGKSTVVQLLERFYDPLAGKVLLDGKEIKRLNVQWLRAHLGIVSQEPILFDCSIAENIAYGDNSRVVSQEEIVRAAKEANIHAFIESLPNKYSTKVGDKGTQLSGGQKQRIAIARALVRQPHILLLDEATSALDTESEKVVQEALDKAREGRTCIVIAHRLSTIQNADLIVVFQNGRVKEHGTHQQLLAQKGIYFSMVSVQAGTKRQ
T2 sequence (Q99835 28-787): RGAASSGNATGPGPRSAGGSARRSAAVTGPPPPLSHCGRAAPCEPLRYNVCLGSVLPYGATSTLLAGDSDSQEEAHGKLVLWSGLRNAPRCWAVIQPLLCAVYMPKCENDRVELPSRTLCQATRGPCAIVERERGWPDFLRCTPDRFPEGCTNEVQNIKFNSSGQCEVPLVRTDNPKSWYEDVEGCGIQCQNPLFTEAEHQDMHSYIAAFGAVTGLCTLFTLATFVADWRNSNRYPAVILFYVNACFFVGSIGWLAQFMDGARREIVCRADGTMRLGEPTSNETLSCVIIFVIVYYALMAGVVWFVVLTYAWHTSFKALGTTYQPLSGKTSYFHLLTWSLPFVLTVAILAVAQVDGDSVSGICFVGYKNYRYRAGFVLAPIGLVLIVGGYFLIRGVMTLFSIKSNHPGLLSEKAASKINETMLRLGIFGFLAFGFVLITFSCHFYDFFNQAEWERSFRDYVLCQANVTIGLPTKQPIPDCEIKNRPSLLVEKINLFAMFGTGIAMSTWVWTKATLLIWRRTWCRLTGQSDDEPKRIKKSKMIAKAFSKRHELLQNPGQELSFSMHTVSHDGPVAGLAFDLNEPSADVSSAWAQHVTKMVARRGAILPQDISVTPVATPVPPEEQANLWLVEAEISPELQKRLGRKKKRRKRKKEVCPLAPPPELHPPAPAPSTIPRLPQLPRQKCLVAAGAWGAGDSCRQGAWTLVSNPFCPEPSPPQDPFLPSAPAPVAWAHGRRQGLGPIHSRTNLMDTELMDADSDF

On to `CC1=C2C[C@H]3[C@@H](CC[C@@H]4C[C@H](NS(C)(=O)=O)CC[C@@]43C)[C@@H]2CC[C@@]2(C1)O[C@@H]1C[C@H](C)CN[C@H]1[C@H]2C` [IPI-926], for which the “stroma, tumor vascularization and effect of Gem chemotherapy” value in data set [1] was “selective stromal elimination, better tumor vascularization, and greater effect of Gem chemotherapy”.

Broadly, the IC50 is the concentration at which inhibition is half-maximal. In the case of `CCc1cc2c(c(OCC(F)(F)F)c(C(=O)NC3CCN(C(=O)CO)CC3)n2C)c(=O)n1CC(=O)c1ccccc1` [TAK-441, 6-ethyl-N-[1-(hydroxyacetyl)piperidin-4-yl]-1-methyl-4-oxo-5-(2-oxo-2-phenylethyl)-3-(2,2,2-triflurorethoxy)-4,5-dihydro-1H-pyrrolo[3,2-c]pyrdine-2-carboxamide], the “tumor progression / paracrine Hh ligand signaling” value in data set [2] is on record as “inhibit tumor progression”. Moreover, in data set [3], the “other findings of unknown relevance to humans” value was “gait alterations and tremors”. For the same compound, the toxicological changes result in data set [3] (setting [26]) was “decreased body weight; atrophy of the growth plate in the ribs and hair follicles; erosion or ulceration of the gastric mucosa; anemia; necrosis and hypocellularity of the bone marrow as well as inflammation and hemorrhage in the lung”; in data set [4] (setting [26]), “decreased body weight; atrophy of the growth plate in the ribs and hair follicles; erosion or ulceration of the gastric mucosa; anemia; necrosis and hypocellularity of the bone marrow as well as inflammation and hemorrhage in the lung”. For the same compound, the dose-limiting toxicities result in data set [4] is “weight loss; decrease in food consumption; injuries of the gastrointestinal tract”; in data set [10] (patients), “muscle spasms and fatigue”. Also, in data set [5], the “inhibition of human dopamine transporter” value is given as 75%. Moreover, the “substrate for P-glycoprotein (P-gp) flow pump” value in [6] is on record as “bad substrate”. The IC50 in data set [7] is 8.6 nM; in data set [14], 4.4 nM; in [18], 1.9 nM. Further, the “Gli1 mRNA expression in tumor-associated stromal tissue” value in [8] (Ohashi et al.) was “suppressed”. The “expression of Gli1 mRNA in vivo” value is reported as “dose-dependent inhibition” in [8] (medulloblastoma allograft, mouse tumor) and “dose-dependent inhibition” in data set [23] (stromal tumor associated). The tumor activity entry in data set [8] (medulloblastoma allograft, p<0.025) is “significant dose-dependent tumor activity”; in [23] (p<0.025), “significant dose-dependent tumor activity”. In [8] (mouse medulloblastoma allograft model), the “tumor growth treatment/control ratio” value is 3%. In addition, the CL in [9] is 161.3 mL/h/kg; in [12] (dogs), 397.9 mL/h/kg. Also, the “distribution volume in steady state plasma (Vss)” value in data set [9] was 681.6 mL/kg; in data set [12] (dogs), 2181.3 mL/kg. In addition, the t % was 1.7 h in data set [9] and 9.8 h in data set [12] (dogs). In data set [10] (a patient with basal cell carcinoma), the clinical response result was “partial response”. The “mean Tmax” value in [10] (after a single dose) was 1.8 to 4.2 h; in data set [10] (after several doses), 2.4 to 4.0 h. Also, the “pharmacokinetics based on plasma concentration-time AUC” value in data set [10] (dose range 50-1600 mg) is “linear over the entire dose range”. The “inhibition of Gli1 gene expression in skin biopsies” value in data set [10] (patients) is “observed with all doses analyzed”. Also, the median elimination half-life in data set [10] (patients) is 12.9 to 18.3 h. The tolerability entry in [10] (patients) is reported as “well-tolerated”. Also, the “binding to plasma proteins” value is on record as 96.2% in data set [11], 79.6% in data set [16], 99.7% in [17] and 87.7% in data set [25]. Further, in [12] (fed dogs compared with fasting dogs), the “increase of degree of absorption, fed versus fasting (Cmax and AUC0-24 h)” value was “approximately 2 times”. The “TGI (%) day 21 (1 − [Tf − Ti]/[Cf − Ci])” value is reported as 42% in data set [13], 61% in data set [19] and 15% in data set [22]. In data set [15], the “inhibition of human PDE4 phosphodiesterase” value is 67%. The “inhibitory effect on other CYP isozymes” value in data set [20] was “no inhibitory effect”. The “time-dependent inhibition of CYP isoenzyme” value in data set [20] (human liver microsomes) is reported as “not a time-dependent inhibitor”. Also, the CYP2C8 inhibition result in data set [21] is given as “weak inhibitor”. For the same compound, in data set [24], the “Papp, A-to-B” value was 19.6 '10-6 cm/sec.

The values are drawn from patent publication US11911374B2, “Methods and uses for treating cancer” (NELUM CORPORATION, priority 2019, dated 2024).
